Data as given in patent US20140329863A1 (priority 2011, published 2014).

Experiments:
CYP2C9 [1] = target: T1, CYP2C9 (Homo sapiens, UniProt P11712); experiment: CYP phenotyping in human liver microsomes, sulphaphenazol; type: in vitro ADME; details: for CYP Involvement: CYP2C9, NADPH + Sulphaphenazol; for % Disappearance / Measured Conc. / Δ % Disappearance: reversible incubation condition, NADPH + Sulphaphenazol
T1 construct: tissue BD Biosciences; host or cells: pooled human liver microsomes

in vitro [2] = details: rat, microsomes, pH 7.4
CYP2C19 [3] = details: reversible incubation condition, NADPH + N-3-B
CYP2C19 [4] = target: T2, CYP2C19 (Homo sapiens, UniProt P33261); details: for CYP Involvement: CYP2C19, NADPH + N-3-B; for Δ % Disappearance: reversible incubation condition, NADPH + N-3-B
CYP3A4 [5] = target: T3, CYP3A4 (Homo sapiens, UniProt P08684); experiment: CYP phenotyping in human liver microsomes, ketoconazole; type: in vitro ADME; details: for CYP Involvement: CYP3A4, NADPH + Ketoconazole; for % Disappearance / Measured Conc. / Δ % Disappearance: reversible incubation condition, NADPH + Ketoconazole
T3 construct: tissue BD Biosciences; host or cells: pooled human liver microsomes

[6] = Toleration studies in mice; details: 210 mg/kg/day for 14 days, mice
CYP1A2 [7] = target: T4, CYP1A2 (Homo sapiens, UniProt P05177); experiment: CYP phenotyping in human liver microsomes, furafylline; type: in vitro ADME; details: for CYP Involvement: CYP1A2, NADPH + Furafylline; for % Disappearance / Measured Conc. / Δ % Disappearance: irreversible incubation condition, NADPH + Furafylline
T4 construct: tissue BD Biosciences; host or cells: pooled human liver microsomes
T4 sequence (P05177 1-516): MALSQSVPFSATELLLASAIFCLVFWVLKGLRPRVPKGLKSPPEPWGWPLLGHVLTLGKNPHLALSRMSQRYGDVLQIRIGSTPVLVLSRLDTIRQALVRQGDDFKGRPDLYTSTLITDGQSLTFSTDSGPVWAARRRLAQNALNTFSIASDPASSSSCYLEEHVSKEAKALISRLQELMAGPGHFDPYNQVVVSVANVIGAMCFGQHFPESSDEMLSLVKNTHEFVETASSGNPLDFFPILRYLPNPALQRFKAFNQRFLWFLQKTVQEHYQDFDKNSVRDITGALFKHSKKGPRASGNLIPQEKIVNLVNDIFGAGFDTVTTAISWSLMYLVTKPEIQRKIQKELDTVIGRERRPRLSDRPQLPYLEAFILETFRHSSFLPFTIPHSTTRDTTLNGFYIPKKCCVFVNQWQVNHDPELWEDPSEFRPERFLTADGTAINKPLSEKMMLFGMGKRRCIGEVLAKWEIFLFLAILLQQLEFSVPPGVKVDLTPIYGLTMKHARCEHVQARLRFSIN

CYP2C19 [8] = target: T2, CYP2C19; details: HLM, 5 μM (+)-N-3-benzylnirvanol
CYP1A2 [9] = target: T4, CYP1A2; experiment: Cytochrome P450 phenotyping in human liver microsomes, CYP1A2 (furafylline); type: in vitro ADME; details: HLM, 10 μM furafylline
Text: (§1) % Disappearance=[(TC-NADPH TC+NADPH)/TC-NADPH]×100
(§2) for which TC is the test compound.

CYP3A4 [10] = target: T3, CYP3A4; experiment: Cytochrome P450 phenotyping in human liver microsomes, CYP3A4 (ketoconazole); type: in vitro ADME; details: HLM, 1 μM ketoconazole
Text: as §1, §2

in vitro [11] = details: Sprague-Dawley (rat), beagle (dog), CD-1 (mouse), human, plasma
CYP2C9 [12] = target: T1, CYP2C9; experiment: Cytochrome P450 phenotyping in human liver microsomes, CYP2C9 (sulfaphenazole); type: in vitro ADME; details: HLM, 5 μM sulfaphenazole
Text: as §1, §2

in vitro [13] = details: rat, plasma, pH 7.4
in vitro [14] = details: dog, plasma, pH 7.4
CYP2D6 = target: T5, CYP2D6 (Homo sapiens, UniProt P10635); experiment: Cytochrome P450 phenotyping in human liver microsomes, CYP2D6 (quinidine); type: in vitro ADME; details: HLM, 1 μM quinidine
T5 construct: tissue BD Biosciences; host or cells: pooled human liver microsomes
Text: as §1, §2

in vitro [15] = details: plasma
in vitro [16] = details: human, plasma

T1 sequence (P11712 whole entry): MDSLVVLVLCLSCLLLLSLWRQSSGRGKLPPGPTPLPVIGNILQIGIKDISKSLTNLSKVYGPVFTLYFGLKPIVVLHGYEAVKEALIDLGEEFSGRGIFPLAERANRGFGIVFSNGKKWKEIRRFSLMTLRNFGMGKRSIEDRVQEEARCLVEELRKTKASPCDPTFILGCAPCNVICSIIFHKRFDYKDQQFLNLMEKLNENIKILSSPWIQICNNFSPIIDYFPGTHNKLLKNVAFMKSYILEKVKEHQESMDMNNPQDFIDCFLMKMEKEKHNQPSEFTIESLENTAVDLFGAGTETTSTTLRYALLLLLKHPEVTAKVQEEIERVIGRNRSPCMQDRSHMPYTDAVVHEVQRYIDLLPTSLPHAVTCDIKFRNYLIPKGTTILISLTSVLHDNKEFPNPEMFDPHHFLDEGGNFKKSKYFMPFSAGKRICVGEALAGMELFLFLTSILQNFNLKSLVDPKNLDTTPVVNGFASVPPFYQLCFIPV
T2 sequence (P33261 whole entry): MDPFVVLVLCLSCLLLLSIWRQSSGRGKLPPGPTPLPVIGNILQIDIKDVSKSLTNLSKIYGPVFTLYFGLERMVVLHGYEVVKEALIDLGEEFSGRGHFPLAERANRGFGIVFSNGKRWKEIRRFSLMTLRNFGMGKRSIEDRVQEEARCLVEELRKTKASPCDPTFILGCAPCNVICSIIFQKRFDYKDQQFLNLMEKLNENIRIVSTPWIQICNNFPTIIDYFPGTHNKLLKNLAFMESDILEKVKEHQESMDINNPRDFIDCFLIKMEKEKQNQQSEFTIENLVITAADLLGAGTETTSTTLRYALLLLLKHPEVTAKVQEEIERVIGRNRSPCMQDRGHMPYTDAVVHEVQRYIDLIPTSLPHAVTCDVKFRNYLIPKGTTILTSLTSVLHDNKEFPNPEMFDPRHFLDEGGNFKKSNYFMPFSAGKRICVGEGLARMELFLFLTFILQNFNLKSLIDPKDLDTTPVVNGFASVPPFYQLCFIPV
T3 sequence (P08684 whole entry): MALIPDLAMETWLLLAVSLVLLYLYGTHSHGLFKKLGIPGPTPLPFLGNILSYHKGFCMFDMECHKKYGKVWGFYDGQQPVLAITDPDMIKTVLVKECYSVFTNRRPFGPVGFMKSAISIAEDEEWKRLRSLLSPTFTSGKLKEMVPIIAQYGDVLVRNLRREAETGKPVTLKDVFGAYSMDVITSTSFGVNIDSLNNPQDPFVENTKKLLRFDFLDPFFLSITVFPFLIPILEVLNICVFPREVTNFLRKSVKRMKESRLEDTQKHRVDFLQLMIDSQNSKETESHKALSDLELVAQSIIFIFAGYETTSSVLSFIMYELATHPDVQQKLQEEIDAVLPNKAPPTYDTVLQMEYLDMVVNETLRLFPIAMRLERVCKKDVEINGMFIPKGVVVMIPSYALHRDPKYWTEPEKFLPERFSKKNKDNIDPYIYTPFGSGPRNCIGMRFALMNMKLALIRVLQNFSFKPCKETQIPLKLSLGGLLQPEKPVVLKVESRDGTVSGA
T5 sequence (P10635 whole entry): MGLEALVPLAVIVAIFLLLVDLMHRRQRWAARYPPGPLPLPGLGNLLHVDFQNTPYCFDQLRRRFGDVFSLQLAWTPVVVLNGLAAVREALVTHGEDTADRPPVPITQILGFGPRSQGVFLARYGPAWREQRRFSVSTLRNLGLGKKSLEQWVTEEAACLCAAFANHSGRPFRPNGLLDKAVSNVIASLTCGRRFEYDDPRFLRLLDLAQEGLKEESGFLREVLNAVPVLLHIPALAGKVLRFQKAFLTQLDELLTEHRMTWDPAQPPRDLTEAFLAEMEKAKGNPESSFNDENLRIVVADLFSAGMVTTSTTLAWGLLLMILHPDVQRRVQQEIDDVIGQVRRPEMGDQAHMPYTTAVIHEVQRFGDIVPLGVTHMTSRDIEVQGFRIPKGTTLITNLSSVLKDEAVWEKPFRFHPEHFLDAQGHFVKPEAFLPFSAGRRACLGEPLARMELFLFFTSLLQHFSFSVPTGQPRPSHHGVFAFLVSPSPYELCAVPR

## Cc1cccc(Nc2nc(-c3ccc(-c4ccccc4)cc3)cs2)n1 [IND24, (4-Biphenyl-4-yl-thiazol-2-yl)-(6-methyl-pyridin-2-yl)-amine]
CYP2C9 [1]
  CYP Involvement: Unlikely (unlikely for values <5)
  % Disappearance: 14%
  Measured Conc.: 0.566 µM
  Δ % Disappearance: 0 (−14) %
In vitro [2]
  half-life at 1 μM: > 1 h
CYP2C19 [3]
  % Disappearance: 18%
  Measured Conc.: 0.537 µM
CYP2C19 [4]
  CYP Involvement: Unlikely (unlikely for values <5)
  Δ % Disappearance: 0 (−18) %
CYP3A4 [5]
  CYP Involvement: Unlikely (unlikely for values <5)
  % Disappearance: 15%
  Measured Conc.: 0.557 µM
  Δ % Disappearance: 0 (−15) %
Binding in dog plasma
  Percentage binding, Dog plasma, 1 μM: 95.1 ± 1.38%
  Percentage binding, Dog plasma, 10 μM: 95.0 ± 0.32%
[6]
  Toleration: well tolerated
CYP1A2 [7]
  CYP Involvement: Unlikely (unlikely for values <5)
  % Disappearance: 0 (−23) %
  Measured Conc.: 0.766 µM
  Δ % Disappearance: 0%

## Cc1ccnc(Nc2nc(-c3ccc(-c4ccccn4)s3)cs2)c1 [IND81, (4-Methyl-pyridin-2-yl)-[4-(5-pyridin-2-yl-thiophen-2-yl)-thiazol-2-yl]-amine]
CYP2C19 [8]
  involvement of CYP2C19 in metabolism: might be involved to a smaller extent
CYP2C9 [1]
  CYP Involvement: Unlikely (unlikely for values <5)
  % Disappearance: 64%
  Measured Conc.: 0.238 µM
  Δ % Disappearance: 1.8%
CYP1A2 [9]
  involvement of CYP1A2 in metabolism: most likely to be involved
CYP3A4 [10]
  involvement of CYP3A4 in metabolism: most likely to be involved
In vitro [11]
  fraction unbound: 0.57
CYP2C9 [12]
  involvement of CYP2C9 in metabolism: unlikely to be involved
In vitro [13]; Sprague-Dawley
  fraction unbound at 4 h: ~0.57
In vitro [13]
  fraction unbound at 4 h: 0.04 to 0.07
In vitro [14]; beagle
  fraction unbound at 4 h: ~0.57
In vitro [14]
  fraction unbound at 4 h: 0.04 to 0.07
CYP2C19 [3]
  % Disappearance: 57%
  Measured Conc.: 0.283 µM
CYP2C19 [4]
  CYP Involvement: Possible (possible for values 5-10)
  Δ % Disappearance: 8.5%
CYP2D6
  involvement of CYP2D6 in metabolism: most likely to be involved
CYP3A4 [5]
  CYP Involvement: Likely (likely for values >10)
  % Disappearance: 51%
  Measured Conc.: 0.324 µM
  Δ % Disappearance: 15%
In vitro [15]; CD-1, mouse, pH 7.4, free fraction in plasma
  fraction unbound at 4 h: ~0.57
In vitro [15]; mouse, pH 7.4, free fraction in plasma
  fraction unbound at 4 h: 0.06 to 0.09
In vitro [15]; mouse, pH 7.4, plasma protein binding, 1 and 10 μM
  fraction unbound at 4 h: 0.04 to 0.07
Binding in dog plasma
  Percentage binding, Dog plasma, 1 μM: 94.4 ± 1.88%
  Percentage binding, Dog plasma, 10 μM: 94.7 ± 1.03%
In vitro [16]; pH 7.4, free fraction in plasma
  fraction unbound at 4 h: ~0.57
In vitro [16]; pH 7.4, plasma protein binding, 1 and 10 μM
  fraction unbound at 4 h: 0.04 to 0.07
CYP1A2 [7]
  CYP Involvement: Unlikely (unlikely for values <5)
  % Disappearance: 41%
  Measured Conc.: 0.534 µM
  Δ % Disappearance: 43%
